What was measured:
lysozyme = assay: Standard activity assay of lysozyme liberated from the CO2-processed polymer extrudate; assay type: biochemical; conditions: Example 6: poly(D,L-lactic acid) MW 71,000 : enzyme ca. 20:1 w/w, CO2 ca. 35° C., 300 bar; compared to lysozyme that has not undergone processing
Description: (§1) Poly(D,L-lactic acid) (MW 71,000) and lysozyme enzyme powder are added to a high pressure autoclave at a defined ratio (ca. 20:1 weight for weight). The autoclave is charged with carbon dioxide at a defined temperature and pressure (ca. 35° C., 300 bar) sufficient to ensure plasticization of the polymer by carbon dioxide and the contents are mixed together. Discharging of the contents into a second autoclave at atmospheric pressure, through a longer angled nozzle, yields a solid fibrous-mesh product, containing lysozyme, of similar morphology to Example 1. Upon liberation from the polymer the biological activity of lysozyme is unaffected by the carbon dioxide processing compared to lysozyme that has not undergone processing. Standard activity assays described in the literature are used to determine the lysozyme activity.

ribonuclease = assay: Standard activity assay of ribonuclease liberated from the CO2-processed polymer extrudate; assay type: biochemical; conditions: Example 5: poly(D,L-lactic acid) MW 71,000 : enzyme ca. 20:1 w/w, CO2 ca. 35° C., 300 bar; compared to ribonuclease that has not undergone processing
Description: as §1, with “ribonuclease” for “lysozyme”, “ribonuclease,” for “lysozyme,”

Substance | biological activity of lysozyme upon liberation from the polymer (lysozyme) | biological activity of ribonuclease upon liberation from the polymer (ribonuclease)
lysozyme | unaffected | –
ribonuclease | – | unaffected

— patent US20070254035A1, “Preparing Active Polymer Extrudates” (priority 2003, published 2007)
